Measured values published in patent publication US8309731B2, “Electronic device including phenanthroline derivative” (E I du Pont de Nemours and Company, priority 2011, dated 2012).
Converted amounts (≈) assume the structure as drawn.

Columns and labels:
Assay type in all cases: physicochemical
[1] = Solubility in toluene (Compound Properties, Table 1); conditions: organic solvent or mixture
[2] = Solubility as observed during work-up of the synthesis; conditions: for solubility of the isolated solid (in words): in toluene and dichloromethane (DCM)
Protocol: To 2.0 g of dichlorobathophenanthroline (5 mM) from Example 1 was added 3.0 g (11 mM) boronic acid. To this was added 0.15 g Pd2 DBA3 (0.15 mM), 0.1 g tricyclohexylphosphine (0.35 mM) and 3.75 g potassium phosphate (17 mM), and all were dissolved into 30 mL dioxane and 15 mL water. This was mixed and heated in a glove box at 100° C. for 1 hr, then warmed gently (minimum rheostat setting) under nitrogen overnight. On reaching about 80° C. the mixture was a tan brown slurry which slowly became clear brown with a dense precipitate. As the solution refluxed (air condensor) a white powdery precipitate formed. The mixture was cooled and removed from the glove box. The dioxane was removed by evaporation and additional water added. A light brown gummy solid was isolated by filtration and washed with water. […] The product was Compound 4.
Take 2.0 g of dichloro-phen (8 mM) in glove box and add 4.7 g (17 mM) boronic acid. Add 0.15 g Pd2 DBA3 (0.15 mM), 0.1 g tricyclohexylphosphine (0.35 mM) and 3.75 g potassium phosphate (17 mM) and dissolve all into 30 mL dioxane and 15 mL water. Mix and heat in glove box in mantle at 100 C for 1 hr then warm gently (minimum rheostat setting) under nitrogen overnight. Solution immediately is dark purple but on reaching ˜80 C it is a tan brown slurry which slowly becomes clear brown. As the solution refluxes (air condensor) it remains clear brown. Cool and work up by removing from glove box and evaporate out the dioxane then add more water. Filter off light brown gummy solid and wash with water. […] The structure was confirmed by NMR analysis to be Compound 14:
Take 2.5 g of dichloro-phen (10 mM) in glove box and add 8.0 g (22 mM) boronic ester. Add 0.30 g Pd2 DBA3 (0.30 mM), 0.2 g tricylcohexylphosphine (0.70 mM) and 7.5 g potassium phosphate (34 mM) and dissolve all into 60 mL dioxane and 30 mL water. Mix and heat in glove box in mantle at 100 C for 1 hr then warm gently (minimum rheostat setting) under nitrogen overnight. Solution immediately is dark purple but on reaching ˜80 C it is a tan brown slurry which slowly becomes clear brown. […]

[3] = Solubility in anisole (footnotes of Table 1); conditions: organic solvent or mixture

Compound | solubility [1] [µg/mL] | also measured
c1ccc(-c2cc(-c3cccc(-n4c5ccccc5c5ccccc54)c3)nc3c2ccc2c(-c4ccccc4)cc(-c4cccc(-n5c6ccccc6c6ccccc65)c4)nc23)cc1 [Compound 1] | 4800 (≈ 5.89 mM) | 
c1ccc(-c2cc(-c3ccc(N(c4ccccc4)c4ccccc4)cc3)c3ccc4c(-c5ccc(N(c6ccccc6)c6ccccc6)cc5)cc(-c5ccccc5)nc4c3n2)cc1 [Compound 2] | 7600 (≈ 9.28 mM) | 
c1ccc(-c2cc(-c3ccc(-c4cccc5ccccc45)cc3)nc3c2ccc2c(-c4ccccc4)cc(-c4ccc(-c5cccc6ccccc56)cc4)nc23)cc1 [Compound 3] | 4500 (≈ 6.11 mM) | 
c1ccc(-c2cc(-c3ccc(N(c4ccccc4)c4ccccc4)cc3)nc3c2ccc2c(-c4ccccc4)cc(-c4ccc(N(c5ccccc5)c5ccccc5)cc4)nc23)cc1 [Compound 4] | 31300 (≈ 38.2 mM) | solubility of the isolated solid (in words) [2]: dissolved well
c1ccc(-c2ccccc2-c2cc(-c3ccccc3)c3ccc4c(-c5ccccc5)cc(-c5ccccc5-c5ccccc5)nc4c3n2)cc1 [Compound 9] | 25600 (≈ 40.2 mM) | 
Fc1ccccc1-c1cc(-c2ccccc2)c2ccc3c(-c4ccccc4)cc(-c4ccccc4F)nc3c2n1 [Compound 10] | 22200 (≈ 42.6 mM) | 
c1ccc(-c2cc(-c3c4ccccc4c(-c4ccc(-c5cccc6ccccc56)cc4)c4ccccc34)nc3c2ccc2c(-c4ccccc4)cc(-c4c5ccccc5c(-c5ccc(-c6cccc7ccccc67)cc5)c5ccccc45)nc23)cc1 [Compound 11] | 10100 (≈ 9.27 mM) | 
c1ccc(-c2ccc3c(c2)c2cc(-c4ccccc4)ccc2n3-c2cccc(-c3cc(-c4ccccc4)c4ccc5c(-c6ccccc6)cc(-c6cccc(-n7c8ccc(-c9ccccc9)cc8c8cc(-c9ccccc9)ccc87)c6)nc5c4n3)c2)cc1 [Compound 12] | 22800 (≈ 20.4 mM) | 
c1ccc(-c2cc(-c3ccc(-c4ccc5ccccc5c4)cc3)nc3c2ccc2c(-c4ccccc4)cc(-c4ccc(-c5ccc6ccccc6c5)cc4)nc23)cc1 [Compound 13] | 2000 (≈ 2.71 mM) | 
c1ccc(N(c2ccccc2)c2ccc(-c3ccnc4c3ccc3c(-c5ccc(N(c6ccccc6)c6ccccc6)cc5)ccnc34)cc2)cc1 [Compound 14, 4,7-bis(4-diphenylaminophenyl)-1,10-phenanthroline] |  | solubility of the isolated solid (in words) [2]: dissolves well
c1cc(-c2ccnc3c2ccc2c(-c4cccc(-n5c6ccccc6c6ccccc65)c4)ccnc23)cc(-n2c3ccccc3c3ccccc32)c1 [Compound 15] | 20000 (≈ 30.2 mM) | solubility of the product (in words) ([2]; solvent not stated, observed at chromatography/crystallisation): extremely soluble
c1ccc(-c2cccc(-c3cc(-c4ccccc4)c4ccc5c(-c6ccccc6)cc(-c6cccc(-c7ccccc7)c6)nc5c4n3)c2)cc1 [Compound 16] | 800 (≈ 1.26 mM) | solubility [3]: 5000 µg/mL (≈ 7.85 mM)
c1ccc(-c2cc(-c3ccccc3)c3ccc4c(-c5ccccc5)cc(-c5cccc6ccccc56)nc4c3n2)cc1 [Compound 17] | 4200 (≈ 7.86 mM) | 
c1ccc(-c2cc(-c3ccccc3)c3ccc4c(-c5ccccc5)cc(-c5ccc6ccccc6c5)nc4c3n2)cc1 [Compound 18] | 2300 (≈ 4.3 mM) | 
c1ccc(N(c2ccccc2)c2cccc(-c3ccnc4c3ccc3c(-c5cccc(N(c6ccccc6)c6ccccc6)c5)ccnc34)c2)cc1 [Compound 20] | 32200 (≈ 48.3 mM) | 
c1ccc(-c2cc(-c3ccc4ccccc4c3)nc3c2ccc2c(-c4ccccc4)cc(-c4ccc5ccccc5c4)nc23)cc1 [Compound 21] | 1000 (≈ 1.71 mM) | solubility [3]: 3000 µg/mL (≈ 5.13 mM)
